# Patent publication US20230000813A1, “COMPOUND FOR THE TREATMENT OF BOVINE OR SWINE RESPIRATORY DISEASE” (Intervet Inc., priority 2016, published 2023)
# “And” between values parts separate entries of the source, which are not always exact repeats. Identical values can stand only once. Like-named read-outs stand apart in the source and are kept apart here.
# What was measured:
# [1] = test system: Mannheimia haemolytica MH 10720 (154, BRD field isolate); assay: MIC, broth-microdilution (CLSI VET01-A4); format: cell-based; conditions: strain MH 10720
# How it was run: (§1)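 Doubling dilution series in microdilution trays; endpoint = lowest conc. without visible growth (no turbidity, unaided eye); interpretation per CLSI VET01-S3.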
# [2] = test system: Mannheimia haemolytica MH 12587 (1071, BRD field isolate, macrolide-resistance: erm+, E+); assay: MIC, broth-microdilution (CLSI VET01-A4); format: cell-based
# How it was run: as §1
# [3] = test system: Mannheimia haemolytica MH 6357 (M7/2, reference strain, cattle infection strain); assay: MIC, broth-microdilution (CLSI VET01-A4); format: cell-based; conditions: for MIC: strain MH 6357
# How it was run: as §1
# [4] = test system: Mannheimia haemolytica MH 6374 (ATCC 33396, reference strain); assay: MIC, broth-microdilution (CLSI VET01-A4); format: cell-based
# How it was run: as §1
# [5] = test system: Pasteurella multocida PM 10775 (080130003051, BRD field isolate); assay: MIC, broth-microdilution (CLSI VET01-A4); format: cell-based; conditions: strain PM 10775
# How it was run: as §1
# [6] = test system: Pasteurella multocida PM 12080 (IV102277-0093, BRD field isolate); assay: MIC, broth-microdilution (CLSI VET01-A4); format: cell-based; conditions: for MIC: strain PM 12080
# How it was run: as §1
# [7] = test system: Pasteurella multocida PM 6267 (P 2225 (L386), reference strain, mouse infection strain); assay: MIC, broth-microdilution (CLSI VET01-A4); format: cell-based; conditions: for MIC: strain PM 6267
# How it was run: as §1
# [8] = test system: Pasteurella multocida PM 6391 (ATCC 43137, reference strain); assay: MIC, broth-microdilution (CLSI VET01-A4); format: cell-based; conditions: for MIC: strain PM 6391
# How it was run: as §1
# [9] = test system: Acinetobacter baumanii AB 15919 (IV369-2012, dermatitis field isolate); assay: MIC, broth-microdilution (CLSI VET01-A4); format: cell-based; conditions: strain AB 15919
# Method: (§2) The Minimum inhibitory concentrations (MIC) of compounds according to the invention were determined by the broth-microdilution method according to CLSI document VET01-A4.
# (§3) Microdilution trays containing a doubling dilution series of the test compound were used for the tests.
# (§4) The MIC results were interpreted according to the CLSI documents VET01-S3. The lowest concentration of compound at which no visible growth (i.e. no turbidity) detected by the unaided eye was recorded as the MIC.
# [10] = test system: Acinetobacter baumanii AB 16496 (ATCC 19606, reference strain); assay: MIC, broth-microdilution (CLSI VET01-A4); format: cell-based; conditions: strain AB 16496
# Method: as §2, §3, §4
# [11] = test system: Mannheimia haemolytica MH 12180 (KLI-02944, BRD field isolate); assay: MIC, broth-microdilution (CLSI VET01-A4); format: cell-based; conditions: strain MH 12180
# Method: as §2, §3, §4
# [12] = test system: Pasteurella multocida PM 14426 (0006-439, BRD field isolate, macrolide-resistant); assay: MIC, broth-microdilution (CLSI VET01-A4); format: cell-based; conditions: strain PM 14426, macrolide-resistant
# Method: as §2, §3, §4
# [13] = test system: Staphylococcus aureus SA 5816 (2139, mastitis field isolate); assay: MIC, broth-microdilution (CLSI VET01-A4); format: cell-based; conditions: strain SA 5816
# Method: as §2, §3, §4
# [14] = test system: Staphylococcus aureus SA 6114 (ATCC 29213, reference strain); assay: MIC, broth-microdilution (CLSI VET01-A4); format: cell-based; conditions: strain SA 6114
# Method: as §2, §3, §4
# [15] = test system: 20 isolates of Actinobacillus (A.) pleuropneumoniae; assay: MIC50/MIC90, broth-microdilution, European respiratory tract isolates; format: cell-based
# Method: (§5) The in vitro activity of compounds against 20 isolates of Actinobacillus (A.) pleuropneumoniae, 20 of Bordetella (B.) bronchiseptica, 20 of Histophilus (H.) somni, 40 of Mannheimia (M.) haemolytica and 40 of Pasteurella (P.) multocida collected in different European countries were determined. All bacteria were isolated from the respiratory tract of swine and cattle suffering from respiratory disease. All isolates were epidemiologically unrelated as specified by the different suppliers.
# (§6) The minimum inhibitory concentrations (MIC) of compounds according to the invention were determined by the broth-microdilution method according to CLSI document VET01-A4.
# (§7) Microdilution trays containing a doubling dilution series of the test compounds were used for the tests.
# as §4
# [16] = test system: 20 isolates of Bordetella (B.) bronchiseptica; assay: as above; format: cell-based
# Method: as §5, §6, §7, §4
# [17] = test system: 20 isolates of Histophilus (H.) somni; assay: as above; format: cell-based
# Method: as §5, §6, §7, §4
# [18] = test system: 40 isolates of Mannheimia (M.) haemolytica; assay: as above; format: cell-based
# Method: as §5, §6, §7, §4
# [19] = test system: 40 isolates of Pasteurella (P.) multocida; assay: as above; format: cell-based
# Method: as §5, §6, §7, §4
# M. haemolytica M7/2 = assay: Mannheimia haemolytica cattle lung infection model, efficacy (Example 9); format: in vivo, cattle calves; conditions: for Food consumption, cumulated for all animals in the group: 3 calves, SC 10 mg/kg BW
# Method: (§8) Unless otherwise described the study was conducted as described in Example 8.
# Calves were infected via intratracheal instillation of appr. 300 mL of M. haemolytica PBS suspension containing approximately 4×10^9 CFU M. haemolytica in late log phase on Day 0.
# The following clinical findings were recorded: The general behavior scores of the animals before (DO am) and after infection with M. haemolytica in the different treated and control groups are indicated in FIG. 7-1: 0 =normal; 1=slightly depressive, 2=moderately depressive, 3=highly depressive, […] recumbency.
# The following pathomorphological findings after section on Day 2 were recorded: After measuring the body weight and the lung weight the Lung body mass ratio was calculated as shown in FIG. 7-2. A healthy animal has a lung body mass ration around 1.7 or lower. The area percentage of lung consolidations compared to the total lung tissue and the lung score determined that is a combined score of such percentage of lung consoldiations and the grade. For the “grade” the degree of lung consolidation score was graded from 0 to 3 for each of eight lung lobes: 0 no visible changes, 1 low graded colour changes or induration, 2 medium graded induration, 3 high graded induration, hepatisation, necrosis.
# The geometrical means (CFU/g tissue) of bacteriological re-isolations of Mannheimia haemolytica from lung tissue are illustrated in FIG. 7-4.
# [20] = Plasma and tissue concentrations and pharmacokinetics in infected calves (Example 9); format: in vivo, cattle calves
# Method: as §8
# [21] = test system: Mannheimia haemolytica MH 13093 (XB0472-6014.1, BRD field isolate); assay: MIC, broth-microdilution (CLSI VET01-A4); format: cell-based
# How it was run: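 Broth microdilution per CLSI VET01-A4 using doubling dilution series of compound. MIC taken as the lowest concentration with no turbidity visible to the unaided eye, interpreted per CLSI VET01-S3.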
# [22] = test system: 15 isolates of H. parasuis; assay: MIC50/MIC90, agar-dilution method (GC agar base); format: cell-based; conditions: Haemophilus parasuis
# Method: The in vitro activity of 3 representative compounds of this invention against 15 isolates of H. parasuis was determined. All strains were isolated from the respiratory tract of swine in different European countries The MICs for all isolates were determined by using the agar-dilution method according to CLSI document VET01-A4 [1]with the following modification: GC agar base was used instead of Mueller-Hinton agar base for the preparation of the agar-dilution plates. Results were interpreted according to the CLSI document VET01-S3.
# [23] = calves infected with M. haemolytica, SC, single, 10 mg/kg BW, x = number of animals, n = total in group
# [24] = SC single 10 mg/kg (C.105, C.189 in 10% Poloxamer 188; C.326 in 30% Captisol), individual animals and mean
# [25] = SC single 10 mg/kg (C.105, C.189 in 10% Poloxamer 188; C.326 in 30% Captisol), individual animals and mean, 10 mg/kg
# [26] = plasma, SC 10 mg/kg, mean, Phoenix WinNonlin
smiles,measurement,setting,value
COCCNCc1ccc(C#Cc2ccc(C(=O)N[C@H](C(=O)NO)[C@@H](C)O)cc2)s1 [C. 189],MIC,[1],0.125 µg/mL
same,MIC,"[2]; strain MH 12587, macrolide-resistant",1 µg/mL
same,MIC,[3],0.5 µg/mL
same,MIC,[4]; strain MH 6374,0.25 µg/mL
same,MIC,[5],≤0.016 µg/mL
same,MIC,[6],0.063 µg/mL
same,MIC,[7],0.5 µg/mL
same,MIC,[8],0.25 µg/mL
same,MIC,[9],>16 µg/mL
same,MIC,[10],>16 µg/mL
same,MIC,[11],0.25 µg/mL
same,MIC,[12],0.032 µg/mL
same,MIC,[13],>16 µg/mL
same,MIC,[14],>16 µg/mL
same,MIC50,[15],0.25 µg/mL
same,MIC90,[15],0.25 µg/mL
same,MIC50,[16],>16 µg/mL
same,MIC90,[16],>16 µg/mL
same,MIC50,[17],0.032 µg/mL
same,MIC90,[17],0.063 µg/mL
same,MIC50,[18],0.25 µg/mL
same,MIC90,[18],0.5 µg/mL
same,MIC50,[19],0.032 µg/mL
same,MIC90,[19],0.063 µg/mL
same,"Food consumption, cumulated for all animals in the group","M. haemolytica M7/2; D 0 am, after infection and treatment",4800 g
same,"Food consumption, cumulated for all animals in the group",M. haemolytica M7/2; D 0 pm,4800 g
same,"Food consumption, cumulated for all animals in the group",M. haemolytica M7/2; D +1 am,4800 g
same,"Food consumption, cumulated for all animals in the group",M. haemolytica M7/2; D +1 pm,4800 g
same,"Food consumption, cumulated for all animals in the group",M. haemolytica M7/2; D −1 (before infection),4800 g
same,Bacteriological Cure (x of n),M. haemolytica M7/2; [23],1/3
same,Survival (x of n),M. haemolytica M7/2; [23],3/3
same,efficacy against an artificial lung infection with M. haemolytica M7/2 in the calf,"M. haemolytica M7/2; tested dosage of 10 mg/kg, conclusion in words",effective
same,"Concentration, Plasma 48 h",[20]; [24],BLQ
same,"Concentration, Tissue (48 h) ELF",[20]; [24],BLQ
same,"Concentration, Tissue (48 h) Liver",[20]; [24],22.5 ng/mL
same,"Concentration, Tissue (48 h) Lung",[20]; [24],BLQ
same,"Concentration, Tissue (48 h) Muscle",[20]; [24],BLQ
same,"Concentration, Plasma 0.5 h",[20]; [25],916 ng/mL and 892 ng/mL and 1350 ng/mL
same,"Concentration, Plasma 2 h",[20]; [25],465 ng/mL and 663 ng/mL and 788 ng/mL
same,"Concentration, Plasma 4 h",[20]; [25],433 ng/mL and 300 ng/mL and 430 ng/mL
same,"Concentration, Plasma 6 h",[20]; [25],339 ng/mL and 293 ng/mL and 289 ng/mL
same,"Concentration, Plasma 24 h",[20]; [25],31.3 ng/mL and 20.3 ng/mL and 21.8 ng/mL
same,"Concentration, Tissue (48 h) Kidney",[20]; [25],BLQ (2×) and 25.1 ng/mL
same,"Concentration, Tissue (48 h) Liver",[20]; [25],BLQ
same,AUClast,[20]; [26],6236 ng·h/mL
same,CI_F_obs,[20]; [26],26.08 mL/min/kg
same,Cmax,[20]; [26],1053 ng/mL
same,HL_Lambda_z (Half life time),[20]; [26],4.98 h
same,MRTlast (Mean retention time till last measured value),[20]; [26],4.75 h
same,Tmax,[20]; [26],0.5 h
same,Vz_F_obs,[20]; [26],11.2 L/kg
same,"Concentration, Plasma 0 h","[20]; predose, SC single 10 mg/kg (C.105, C.189 in 10% Poloxamer 188; C.326 in 30% Captisol), individual animals and mean",BLQ
C[C@@H](O)[C@H](NC(=O)c1ccc(C#Cc2ccc(CNCC(F)(F)F)cc2)cc1)C(=O)NO [C. 467],MIC,[1],≤0.016 µg/mL
same,MIC MH 12587,"[2]; Mannheimia haemolytica MH 12587, macrolide-resistant",0.4 µM
same,MIC MH 6357,[3]; Mannheimia haemolytica MH 6357,<=0.1 μM
same,MIC,[3],0.125 µg/mL
same,MIC,"[4]; Mannheimia haemolytica MH 6374, read-out: MIC MH 6374",0.2 µM
same,MIC,[4]; strain MH 6374,0.063 µg/mL
same,MIC,[5],≤0.016 µg/mL
same,MIC PM 12080,[6]; Pasteurella multocida PM 12080,<=0.1 μM
same,MIC,[6],≤0.016 µg/mL
same,MIC PM 6267,[7]; Pasteurella multocida PM 6267,<=0.1 μM
same,MIC,[7],0.032 µg/mL
same,MIC PM 6391,[8]; Pasteurella multocida PM 6391,<=0.1 μM
same,MIC,[8],0.032 µg/mL
same,MIC,[21],0.4 µM
same,MIC,[9],>16 µg/mL
same,MIC,[10],>16 µg/mL
same,MIC,[11],0.032 µg/mL
same,MIC,[12],≤0.016 µg/mL
same,MIC,[13],>16 µg/mL
same,MIC,[14],>16 µg/mL
same,MIC50,[15],0.032 µg/mL
same,MIC90,[15],0.063 µg/mL
same,MIC50,[16],2 µg/mL
same,MIC90,[16],2 µg/mL
same,MIC50,[17],≤0.016 µg/mL
same,MIC90,[17],≤0.016 µg/mL
same,MIC50,[18],0.032 µg/mL
same,MIC90,[18],0.063 µg/mL
same,MIC50,[19],≤0.016 µg/mL
same,MIC90,[19],≤0.016 µg/mL
same,MIC50,[22],0.125 µg/mL
same,MIC90,[22],0.25 µg/mL
